Results as given in US20120322654A1, “SYNERGISTIC FUNGICIDAL MIXTURES” (BASF SE, priority 2010, published 2012).

System: Septoria tritici
Assay: Microtiter plate test, activity against Septoria tritici (leaf blotch on wheat)
Type: cell-based
Settings: MTP, absorption at 405 nm 7 days after inoculation, 18° C
Description: The active compounds were formulated separately as a stock solution having a concentration of 10000 ppm in dimethyl sulfoxide.
Activity Against Septoria tritici, the Causal Agent of Leaf Blotch on Wheat
The stock solutions were mixed according to the ratio, pipetted onto a micro titer plate (MTP) and diluted with water to the stated concentrations. A spore suspension of Septoria tritici in an aqueous biomalt solution was then added. The plates were placed in a water vapor-saturated chamber at a temperature of 18° C. Using an absorption photometer, the MTPs were measured at 405 nm 7 days after the inoculation.
The measured parameters were compared to the growth of the active compound-free control variant (100%) and the fungus-free and active compound-free blank value to determine the relative growth in % of the pathogens in the respective active compounds.
The expected efficacies of active compound combinations were determined using Colby's formula (Colby, S. R., Calculating synergistic and antagonistic responses of herbicide combinations, Weeds, 15, pp. 20-22, 1967) and compared with the observed efficacies. […]

| SMILES | Observed efficacy (0.25 ppm) | Observed efficacy (1 ppm) |
| --- | --- | --- |
| O=C(Nc1ccccc1-c1ccc(Cl)cc1)c1cccnc1Cl [Boscalid, boscalid] | 34% | – |
| CC1(C)C(C=C(Cl)Cl)C1C(=O)OC(C#N)c1cccc(Oc2ccccc2)c1 (stereo not drawn) [alpha-Cypermethrin, alpha-cypermethrin] | – | 2% |
